Assay results as given in ChEMBL document CHEMBL2375240, “The alpha-carbonic anhydrase from the thermophilic bacterium Sulfurihydrogenibium yellowstonense YO3AOP1 is highly susceptible to inhibition by sulfonamides” (Bioorg Med Chem, 2013).

Target: Carbonic anhydrase 1 (Homo sapiens, UniProt P00915)
Sequence (P00915 whole entry): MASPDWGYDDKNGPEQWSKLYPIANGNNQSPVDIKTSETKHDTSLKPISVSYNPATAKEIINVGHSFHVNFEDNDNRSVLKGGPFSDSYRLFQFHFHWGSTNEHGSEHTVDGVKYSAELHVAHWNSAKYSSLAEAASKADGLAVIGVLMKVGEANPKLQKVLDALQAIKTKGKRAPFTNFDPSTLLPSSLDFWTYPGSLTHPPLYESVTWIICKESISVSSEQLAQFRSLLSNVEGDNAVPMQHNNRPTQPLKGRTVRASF

Structure (SMILES)	Ki [nM]
Cn1nc(S(N)(=O)=O)s/c1=N/S(=O)(=O)c1ccc(N)cc1	185
NS(=O)(=O)c1nc2ccc(OCCO)cc2s1	23000
Nc1ccc2nc(S(N)(=O)=O)sc2c1	55
